Our source for the IC50, inhibition and Activity values is ChEMBL document CHEMBL6153046, “Semisynthesis of Glycosmis pentaphylla Alkaloid Derivatives: Pyranoacridone-Hydroxamic Acid Cytotoxic Conjugates with HDAC and Topoisomerase II α Dual Inhibitory Activity” (J Nat Prod, 2025).

What is called IC50 is the concentration at which inhibition is half-maximal.

The test system of series [1] is SCC-25. The series can be described thus: Cytotoxicity against human SCC-25 cells assessed as cell viability incubated for 96 hrs by MTT assay. Conditions: SCC-25, 96 h. Format: functional, cell-based. On the technique in general: Formazan colour is commonly taken as a measure of viable cells.
Series [2] deals with MCF7. The series can be described thus: Cytotoxicity against human MCF-7 cells assessed as cell viability incubated for 96 hrs by MTT assay. Format: functional, cell-based. Conditions: MCF7, 96 h.
The target of series [3] is DNA topoisomerase 2-alpha (Homo sapiens) (UniProt P11388). Kind of series: Inhibition of human topoisomerase II alpha using kinetoplast DNA as substrate incubated for 30 mins. Conditions: dose 10-100 µM.
Series [4] in a line: Cytotoxicity against human Oral epithelial cell assessed as cell viability incubated for 96 hrs by MTT assay. The settings on record: for IC50 at 96 h: human, oral epithelial cells; for IC50: oral epithelial cell.
Series [5] relates to Calu-3. Kind of series: Cytotoxicity against human CALU-3 cells assessed as cell viability incubated for 96 hrs by MTT assay. Format: functional, cell-based. Conditions: Calu-3, 96 h.
In series [6] the test system is SCC-25. Kind of series: Induction of apoptosis in human SCC-25 cells assessed as necrotic cells at 10 uM incubated for 48 hrs by Annexin V-Alexa fluor 488 and propidium iodide staining based flow cytometry relative to control. The format is functional. For orientation: Flow cytometry measures light scatter and fluorescence of single cells or particles in a stream.

The test system of series [7] is SCC-25. The series can be described thus: Induction of apoptosis in human SCC-25 cells assessed as viable at 10 uM incubated for 48 hrs by Annexin V-Alexa fluor 488 and propidium iodide staining based flow cytometry relative to control. Format: functional.
Series [8] concerns SCC-25. The series can be described thus: Induction of apoptosis in human SCC-25 cells assessed as necrotic cells at 0.1 uM incubated for 48 hrs by Annexin V-Alexa fluor 488 and propidium iodide staining based flow cytometry relative to control. Format: functional.
Series [9] concerns SCC-25. The series can be described thus: Induction of apoptosis in human SCC-25 cells assessed as late apoptotic cells at 1 uM incubated for 48 hrs by Annexin V-Alexa fluor 488 and propidium iodide staining based flow cytometry relative to control. The format is functional.
For series [10], the system named is SCC-25. Kind of series: Induction of apoptosis in human SCC-25 cells assessed as viable at 1 uM incubated for 48 hrs by Annexin V-Alexa fluor 488 and propidium iodide staining based flow cytometry relative to control. The format is functional.
Series [11] relates to SCC-25. The series can be described thus: Induction of apoptosis in human SCC-25 cells assessed as viable at 0.1 uM incubated for 48 hrs by Annexin V-Alexa fluor 488 and propidium iodide staining based flow cytometry relative to control. The format is functional.
The subject of series [12] is SCC-25. Kind of series: Induction of apoptosis in human SCC-25 cells assessed as late apoptotic cells at 0.1 uM incubated for 48 hrs by Annexin V-Alexa fluor 488 and propidium iodide staining based flow cytometry relative to control. Format: functional.
Series [13] has as its system SCC-25. Kind of series: Induction of apoptosis in human SCC-25 cells assessed as early apoptotic cells at 0.1 uM incubated for 48 hrs by Annexin V-Alexa fluor 488 and propidium iodide staining based flow cytometry relative to control. Format: functional.
Series [14] has as its system SCC-25. Kind of series: Induction of apoptosis in human SCC-25 cells assessed as early apoptotic cells at 1 uM incubated for 48 hrs by Annexin V-Alexa fluor 488 and propidium iodide staining based flow cytometry relative to control. Format: functional.
In series [15] the test system is SCC-25. The series can be described thus: Induction of apoptosis in human SCC-25 cells assessed as late apoptotic cells at 10 uM incubated for 48 hrs by Annexin V-Alexa fluor 488 and propidium iodide staining based flow cytometry relative to control. The format is functional.
In series [16] the test system is SCC-25. Kind of series: Induction of apoptosis in human SCC-25 cells assessed as necrotic cells at 1 uM incubated for 48 hrs by Annexin V-Alexa fluor 488 and propidium iodide staining based flow cytometry relative to control. Format: functional.
Series [17] concerns SCC-25. Kind of series: Induction of apoptosis in human SCC-25 cells assessed as early apoptotic cells at 10 uM incubated for 48 hrs by Annexin V-Alexa fluor 488 and propidium iodide staining based flow cytometry relative to control. Format: functional.
For series [18], the system named is SCC-25. Kind of series: Induction of apoptosis in human SCC-25 cells assessed as early apoptotic cells at 200 uM incubated for 48 hrs by Annexin V-Alexa fluor 488 and propidium iodide staining based flow cytometry relative to control. The format is functional.
Series [19] deals with SCC-25. The series can be described thus: Induction of apoptosis in human SCC-25 cells assessed as viable at 200 uM incubated for 48 hrs by Annexin V-Alexa fluor 488 and propidium iodide staining based flow cytometry relative to control. The format is functional.
Series [20] concerns the target DNA topoisomerase 2-alpha (Homo sapiens) (UniProt P11388). The settings on record: dose 2.0 mM, time 30.0 min.
The test system of series [21] is SCC-25. The series can be described thus: Induction of apoptosis in human SCC-25 cells assessed as late apoptotic cells at 200 uM incubated for 48 hrs by Annexin V-Alexa fluor 488 and propidium iodide staining based flow cytometry relative to control. Format: functional.
The subject of series [22] is SCC-25. Kind of series: Induction of apoptosis in human SCC-25 cells assessed as necrotic cells at 200 uM incubated for 48 hrs by Annexin V-Alexa fluor 488 and propidium iodide staining based flow cytometry relative to control. The format is functional.
Series [23] addresses DNA topoisomerase 2-alpha (Homo sapiens) (UniProt P11388). The series can be described thus: Inhibition of human topoisomerase II alpha using kinetoplast DNA as substrate at 10 microM incubated for 30 mins.

Active and inactive are the calls of the source. The rule behind the calls is not given here.

DNA topoisomerase 2-alpha (Homo sapiens), sequence (P11388 whole entry): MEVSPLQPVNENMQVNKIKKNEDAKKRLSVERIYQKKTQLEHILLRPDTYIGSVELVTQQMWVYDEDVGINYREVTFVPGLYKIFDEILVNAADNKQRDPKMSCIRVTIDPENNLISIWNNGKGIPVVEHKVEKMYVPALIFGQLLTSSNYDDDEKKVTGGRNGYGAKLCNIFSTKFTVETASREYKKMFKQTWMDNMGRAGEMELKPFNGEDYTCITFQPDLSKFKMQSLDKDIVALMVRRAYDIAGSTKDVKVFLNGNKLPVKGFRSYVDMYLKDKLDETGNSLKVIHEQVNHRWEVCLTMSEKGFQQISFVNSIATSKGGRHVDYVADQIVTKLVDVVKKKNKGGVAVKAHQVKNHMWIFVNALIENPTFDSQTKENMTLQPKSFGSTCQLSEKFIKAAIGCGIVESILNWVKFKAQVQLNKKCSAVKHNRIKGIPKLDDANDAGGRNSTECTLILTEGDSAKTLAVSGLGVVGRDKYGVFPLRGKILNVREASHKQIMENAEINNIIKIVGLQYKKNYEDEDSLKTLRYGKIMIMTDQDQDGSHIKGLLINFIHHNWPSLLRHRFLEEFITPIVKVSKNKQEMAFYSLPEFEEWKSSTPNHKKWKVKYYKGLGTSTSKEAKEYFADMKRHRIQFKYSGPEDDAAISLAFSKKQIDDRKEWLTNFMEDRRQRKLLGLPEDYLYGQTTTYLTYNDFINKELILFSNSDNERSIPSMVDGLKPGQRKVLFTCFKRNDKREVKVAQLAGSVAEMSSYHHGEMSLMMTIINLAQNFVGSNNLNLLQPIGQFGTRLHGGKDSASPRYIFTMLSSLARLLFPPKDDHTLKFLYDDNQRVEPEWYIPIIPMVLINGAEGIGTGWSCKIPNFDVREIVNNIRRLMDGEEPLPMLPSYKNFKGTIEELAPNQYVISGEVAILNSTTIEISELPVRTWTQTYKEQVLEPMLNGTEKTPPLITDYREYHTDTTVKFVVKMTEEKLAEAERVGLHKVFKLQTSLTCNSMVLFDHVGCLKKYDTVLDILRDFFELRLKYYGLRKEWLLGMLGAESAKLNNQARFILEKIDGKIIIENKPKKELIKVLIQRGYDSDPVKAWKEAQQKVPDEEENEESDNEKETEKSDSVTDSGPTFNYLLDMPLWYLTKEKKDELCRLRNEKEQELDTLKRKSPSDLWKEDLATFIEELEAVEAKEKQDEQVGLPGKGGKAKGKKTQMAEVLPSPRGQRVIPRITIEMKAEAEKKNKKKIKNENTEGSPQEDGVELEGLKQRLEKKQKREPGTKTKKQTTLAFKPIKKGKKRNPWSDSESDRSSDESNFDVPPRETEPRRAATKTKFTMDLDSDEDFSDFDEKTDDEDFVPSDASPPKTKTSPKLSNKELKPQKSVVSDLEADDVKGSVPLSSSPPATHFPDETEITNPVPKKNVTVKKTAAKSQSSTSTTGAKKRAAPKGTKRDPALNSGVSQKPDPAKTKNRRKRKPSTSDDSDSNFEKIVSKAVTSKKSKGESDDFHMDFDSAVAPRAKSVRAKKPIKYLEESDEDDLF

On to `Cn1c2ccccc2c(=O)c2c(OCCCC(=O)NO)cc3c(c21)C=CC(C)(C)O3`, for which the results for the IC50 in series [1], in series [2] and in series [5] were 2.2 µM, 2.8 µM and 3.2 µM, respectively. The inhibition entry in series [3] is “Dose-dependent-effect”. In series [4], the IC50 at 96 h was found to be 27 µM.
Consider `COc1cc2c(c3c1c(=O)c1ccccc1n3CCCCCC(=O)NO)C=CC(C)(C)O2`, for which the IC50 in series [1] amounted to 14.8 µM; in series [2], 40.8 µM; in series [5], 18 µM. The IC50 at 96 h in series [4] was more than 100 µM.
Consider `COc1cc2c(c3c1c(=O)c1ccccc1n3CC(=O)NO)C=CC(C)(C)O2`, for which the IC50 is 41.5 µM in series [1], more than 100 µM in series [2], “Not_determined” in series [4] and 61.8 µM in series [5].
As for `COc1cc2c(c3c1c(=O)c1ccccc1n3CCCC(=O)NO)C=CC(C)(C)O2`, the IC50 is 36 µM in series [1], more than 100 µM in series [2], “Not_determined” in series [4] and 36.8 µM in series [5].
`COc1cc2c(c3[nH]c4ccccc4c(=O)c13)C=CC(C)(C)O2`: the IC50 in [1] is 21.2 µM; in series [2] it was 191 µM; in series [4], “Not_determined”; in [5], 13.9 µM.
In the case of `COc1cc2c(c3c1c(=O)c1ccccc1n3Cc1cccc(C(=O)NO)c1)C=CC(C)(C)O2`, the IC50 in [1] is 39.3 µM; in series [2], 80.1 µM; in series [4] it was “Not_determined”; in series [5], 42 µM.
Turning to `Cn1c2ccccc2c(=O)c2c(OCC(=O)NO)cc3c(c21)C=CC(C)(C)O3`, the figures for the IC50 in [1], in series [2] and in series [5] were 1.2 µM, 10.9 µM and 4 µM, respectively. Besides, the inhibition result in series [3] is “Dose-dependent-effect”. For the same molecule, in [4], the IC50 at 96 h was more than 100 µM.
On to `Cn1c2ccccc2c(=O)c2c(OCCCCC(=O)NO)cc3c(c21)C=CC(C)(C)O3`, for which the Activity was determined as 33.1% in series [6]; 13.7% in series [7]; 1.96% in [8]; 4.35% in series [9]; 87% in series [10]; 96.1% in series [11]. Moreover, the Activity in [12] stood at 1.35%; in series [13] it was 0.63%; in series [14] it was 1.13%; in series [15], 53.1%; in [16], 7.49%; in series [17], 0.15%. For the same molecule, the IC50 in [1] was 0.35 µM; in series [2], 1.03 µM; in [5], 1.51 µM. Also, in [3], the inhibition entry was “Dose-dependent-effect”. In series [4], the IC50 at 96 h was more than 100 µM.
Turning to `COc1cc2c(c3c1c(=O)c1ccccc1n3CCCCCCC(=O)NO)C=CC(C)(C)O2`, the figures for the half-maximal inhibitory concentration (IC50) in [1], in series [2] and in [5] were 1.11 µM, 6.12 µM and 4.37 µM, respectively. In addition, the inhibition entry in series [3] was “Dose-dependent-effect”. In addition, the IC50 at 96 h in [4] came to 60.2 µM.
For `Cn1c2ccccc2c(=O)c2c(OCCCCCCC(=O)NO)cc3c(c21)C=CC(C)(C)O3`, the IC50 was found to be 0.7 µM in series [1], 5.7 µM in series [2] and 10.6 µM in [5]. Further, the inhibition result in series [3] was “Dose-dependent-effect”. In [4], the IC50 at 96 h is more than 100 µM.
Regarding `Cn1c2ccccc2c(=O)c2c(O)cc3c(c21)C=CC(C)(C)O3` [NORACRONYCINE], the IC50 is 14.1 µM in [1], 187 µM in series [2], “Not_determined” in series [4] and 97.5 µM in series [5].
For the molecule `Cn1c2ccccc2c(=O)c2c(OCCCCCC(=O)NO)cc3c(c21)C=CC(C)(C)O3`, the values for the IC50 in [1], in [2] and in [5] were 9.7 µM, 8.3 µM and 16.1 µM, respectively. Besides, the inhibition result in series [3] was “Dose-dependent-effect”. In series [4], the IC50 at 96 h came out at 24.5 µM.
As for `COc1cc2c(c3c1c(=O)c1ccccc1n3Cc1ccc(C(=O)NO)cc1)C=CC(C)(C)O2`, the IC50 was determined as 7.7 µM in [1], 19.7 µM in series [2] and 14.2 µM in series [5]. Also, the inhibition entry in series [3] is “Dose-dependent-effect”. For the same molecule, the IC50 at 96 h in [4] worked out at 82.5 µM.
On to `COc1cc2c(c3c1c(=O)c1ccccc1n3CCCCC(=O)NO)C=CC(C)(C)O2`, for which the IC50 is more than 100 µM in series [1], more than 100 µM in series [2], “Not_determined” in series [4] and 29.5 µM in [5].
As for `COc1cc([C@@H]2c3cc4c(cc3[C@@H](O[C@@H]3O[C@@H]5CO[C@@H](C)O[C@H]5[C@H](O)[C@H]3O)[C@H]3COC(=O)[C@H]23)OCO4)cc(OC)c1O` [ETOPOSIDE], the IC50 in [1] was 3.4 µM; in [2], 55.6 µM; in [4], “Not_determined”; in [5] it was 0.6 µM. For the same molecule, the Activity is 2.76% in series [18], 65.5% in series [19], 17.2% in series [21] and 13.3% in series [22]. Further, the inhibition entry in [20] was “Active”.
For `Cn1c2ccccc2c(=O)c2c(OCc3ccc(C(=O)NO)cc3)cc3c(c21)C=CC(C)(C)O3`, the figures for the IC50 in [1], in series [2] and in [5] were 1.66 µM, 4.71 µM and 1.81 µM, respectively. Also, the IC50 at 96 h in series [4] was more than 100 µM.
For the molecule `Cn1c2ccccc2c(=O)c2c(OCc3cccc(C(=O)NO)c3)cc3c(c21)C=CC(C)(C)O3`, the IC50 was found to be 23.1 µM in series [1], 6.62 µM in series [2] and 6.53 µM in series [5]. Moreover, in series [23], the inhibition entry is “Active”. Also, the concentration for half-maximal inhibition (IC50) at 96 h in series [4] is more than 100 µM.
